Measured values as given in patent publication US20040072184A1 (priority 2003, published 2004).

System: SGK2
Format: cell-based, human

SMILES	CapK sub (CCPM1)	No-Substrate (CCPM1)	PKB sub (CCPM1)	SGK2 kinase activity (result in words)
COC[C@@H]([C@H](O)[C@H](O)C(=O)NCC[C@H](C)c1nc(/C=C/C[C@@H]2O[C@]3(C[C@@H](O)[C@@H]2C)O[C@H]([C@H](C[C@H](O)[C@H](C)[C@H](O)[C@H](C)/C=C(C)/C(C)=C/C=C/C(C)=C\C#N)OC)[C@H](OP(=O)(O)O)C3(C)C)co1)N(C)C [Calyculin A]	59335	0	92540	stimulated SGK2 kinase activity
C=C1[C@@H](O)[C@@H]2O[C@]3(CC[C@H](/C=C/[C@@H](C)[C@@H]4CC(C)=C[C@@]5(O[C@H](C[C@@](C)(O)C(=O)O)CC[C@H]5O)O4)O3)CC[C@H]2O[C@@H]1[C@@H](O)C[C@H](C)[C@H]1O[C@@]2(CCCCO2)CC[C@H]1C [Okadaic Acid]	161553	2078	132171	stimulated SGK2 kinase activity
